What all share (type): functional
Experiment [1] deals with Staphylococcus aureus. The experiment in a line: Antibacterial activity against erythromycin-susceptible Staphylococcus aureus ATCC 25923 by broth microdilution method. (In general: In broth dilution the organism is exposed to a series of concentrations in liquid medium.)
Experiment [2] has as its system Staphylococcus aureus. Nature of the experiment: Antibacterial activity against erythromycin-resistant, methicillin-susceptible Staphylococcus aureus A265 by broth microdilution method.
Experiment [3] relates to Staphylococcus aureus. Nature of the experiment: Antibacterial activity against erythromycin, methicillin-resistant Staphylococcus aureus A333 by broth microdilution method.
For experiment [4], the system named is Streptococcus pneumoniae. The experiment in a line: Antibacterial activity against erythromycin-susceptible Streptococcus pneumoniae ATCC 49619 by broth microdilution method.
In experiment [5] the test system is Streptococcus pneumoniae. Nature of the experiment: Antibacterial activity against erythromycin-resistant Streptococcus pneumoniae 3469 by broth microdilution method.
The test system of experiment [6] is Haemophilus influenzae. Nature of the experiment: Antibacterial activity against ampicillin-susceptible Haemophilus influenzae ATCC 49247 by broth microdilution method.
Experiment [7] concerns Haemophilus influenzae. The experiment in a line: Antibacterial activity against ampicillin-resistant Haemophilus influenzae 3300 by broth microdilution method.

≈ marks a conversion by molar mass, not a printed value.

Consider `CCCCNC(=O)O[C@H]1[C@H](C)[C@@H](O[C@@H]2O[C@H](C)C[C@H](N(C)C)[C@H]2O)[C@](C)(OC)C[C@@H](C)C(=O)[C@@H](C)[C@@H](OC)[C@](C)(O)[C@@H](CC)OC(=O)[C@@H]1C`, for which the MIC with Staphylococcus aureus [1] is 1 µg/mL (≈ 1.42 µM); with Staphylococcus aureus [2], 1 µg/mL (≈ 1.42 µM); in the experiment on Staphylococcus aureus [3] it was > 64 µg/mL; against Streptococcus pneumoniae [4] it was 0.125 µg/mL (≈ 0.178 µM); with Streptococcus pneumoniae [5], 0.125 µg/mL (≈ 0.178 µM); in the experiment on Haemophilus influenzae [6], 4 µg/mL (≈ 5.69 µM). Also, in the experiment on Haemophilus influenzae [7], the MIC stood at 4 µg/mL (≈ 5.69 µM).

Take `CCCCCNC(=O)O[C@H]1[C@H](C)[C@@H](O[C@@H]2O[C@H](C)C[C@H](N(C)C)[C@H]2O)[C@](C)(OC)C[C@@H](C)C(=O)[C@@H](C)[C@@H](OC)[C@](C)(O)[C@@H](CC)OC(=O)[C@@H]1C`: the MIC in the experiment on Staphylococcus aureus [1] was 2 µg/mL (≈ 2.79 µM); in the experiment on Staphylococcus aureus [2] it was 4 µg/mL (≈ 5.58 µM); with Staphylococcus aureus [3] it was > 64 µg/mL; against Streptococcus pneumoniae [4], 0.125 µg/mL (≈ 0.174 µM); in the experiment on Streptococcus pneumoniae [5], 0.25 µg/mL (≈ 0.349 µM); with Haemophilus influenzae [6], 4 µg/mL (≈ 5.58 µM). This compound registered an MIC in the experiment on Haemophilus influenzae [7] of 4 µg/mL (≈ 5.58 µM).

As to `CC[C@H]1OC(=O)[C@H](C)[C@@H](O[C@H]2C[C@@](C)(OC)[C@@H](O)[C@H](C)O2)[C@H](C)[C@@H](O[C@@H]2O[C@H](C)C[C@H](N(C)C)[C@H]2O)[C@](C)(O)C[C@@H](C)CN(C)[C@H](C)[C@@H](O)[C@]1(C)O` [AZITHROMYCIN], the MIC was 0.5 µg/mL (≈ 0.668 µM) with Staphylococcus aureus [1]; 8 µg/mL (≈ 10.7 µM) with Staphylococcus aureus [2]; > 64 µg/mL with Staphylococcus aureus [3]; 0.5 µg/mL (≈ 0.668 µM) against Streptococcus pneumoniae [4]; 4 µg/mL (≈ 5.34 µM) against Streptococcus pneumoniae [5]; 4 µg/mL (≈ 5.34 µM) with Haemophilus influenzae [6]. For the same compound, in the experiment with Haemophilus influenzae [7], the MIC stood at 4 µg/mL (≈ 5.34 µM).

Consider `CC[C@H]1OC(=O)[C@H](C)[C@@H](OC(=O)NCCc2ccc(OC)cc2)[C@H](C)[C@@H](O[C@@H]2O[C@H](C)C[C@H](N(C)C)[C@H]2O)[C@](C)(OC)C[C@@H](C)C(=O)[C@@H](C)[C@@H](OC)[C@]1(C)O`, for which the MIC against Staphylococcus aureus [1] is 4 µg/mL (≈ 5.12 µM); with Staphylococcus aureus [2], 8 µg/mL (≈ 10.2 µM); in the experiment on Staphylococcus aureus [3], > 64 µg/mL; against Streptococcus pneumoniae [4], 0.125 µg/mL (≈ 0.16 µM); in the experiment on Streptococcus pneumoniae [5] it was 0.125 µg/mL (≈ 0.16 µM); with Haemophilus influenzae [6], 16 µg/mL (≈ 20.5 µM). This compound showed an MIC against Haemophilus influenzae [7] of 16 µg/mL (≈ 20.5 µM).

For the compound `CC[C@H]1OC(=O)[C@H](C)[C@@H](OC(=O)NCCCOC)[C@H](C)[C@@H](O[C@@H]2O[C@H](C)C[C@H](N(C)C)[C@H]2O)[C@](C)(OC)C[C@@H](C)C(=O)[C@@H](C)[C@@H](OC)[C@]1(C)O`, the MIC against Staphylococcus aureus [1] is 8 µg/mL (≈ 11.1 µM); against Staphylococcus aureus [2], 4 µg/mL (≈ 5.56 µM); against Staphylococcus aureus [3] it was > 64 µg/mL; against Streptococcus pneumoniae [4], 0.125 µg/mL (≈ 0.174 µM); with Streptococcus pneumoniae [5] it was 0.125 µg/mL (≈ 0.174 µM); with Haemophilus influenzae [6], 32 µg/mL (≈ 44.5 µM). The same compound registered an MIC in the experiment with Haemophilus influenzae [7] of 16 µg/mL (≈ 22.3 µM).

Take `CC[C@H]1OC(=O)[C@H](C)[C@@H](OC(=O)NCc2ccc(Cl)cc2)[C@H](C)[C@@H](O[C@@H]2O[C@H](C)C[C@H](N(C)C)[C@H]2O)[C@](C)(OC)C[C@@H](C)C(=O)[C@@H](C)[C@@H](OC)[C@]1(C)O`: the MIC against Staphylococcus aureus [1] was 4 µg/mL (≈ 5.19 µM); with Staphylococcus aureus [2], 0.125 µg/mL (≈ 0.162 µM); against Staphylococcus aureus [3] it was > 64 µg/mL; in the experiment on Streptococcus pneumoniae [4], 0.125 µg/mL (≈ 0.162 µM); in the experiment with Streptococcus pneumoniae [5], 0.5 µg/mL (≈ 0.648 µM); against Haemophilus influenzae [6], 2 µg/mL (≈ 2.59 µM). The MIC with Haemophilus influenzae [7] was 4 µg/mL (≈ 5.19 µM).

Consider `CC[C@H]1OC(=O)[C@H](C)[C@@H](OC(=O)NCc2ccc(Br)cc2)[C@H](C)[C@@H](O[C@@H]2O[C@H](C)C[C@H](N(C)C)[C@H]2O)[C@](C)(OC)C[C@@H](C)C(=O)[C@@H](C)[C@@H](OC)[C@]1(C)O`, for which the MIC with Staphylococcus aureus [1] came out at 0.125 µg/mL (≈ 0.153 µM); against Staphylococcus aureus [2] it was 0.125 µg/mL (≈ 0.153 µM); against Staphylococcus aureus [3] it was 32 µg/mL (≈ 39.2 µM); with Streptococcus pneumoniae [4], 0.125 µg/mL (≈ 0.153 µM); with Streptococcus pneumoniae [5], 0.125 µg/mL (≈ 0.153 µM); in the experiment with Haemophilus influenzae [6], 2 µg/mL (≈ 2.45 µM). In the experiment on Haemophilus influenzae [7], this compound displayed an MIC of 2 µg/mL (≈ 2.45 µM).

As to `CC[C@H]1OC(=O)[C@H](C)[C@@H](OC(=O)NCCc2ccccc2Br)[C@H](C)[C@@H](O[C@@H]2O[C@H](C)C[C@H](N(C)C)[C@H]2O)[C@](C)(OC)C[C@@H](C)C(=O)[C@@H](C)[C@@H](OC)[C@]1(C)O`, the MIC came out at 4 µg/mL (≈ 4.82 µM) against Staphylococcus aureus [1]; 4 µg/mL (≈ 4.82 µM) with Staphylococcus aureus [2]; 64 µg/mL (≈ 77.1 µM) against Staphylococcus aureus [3]; 0.125 µg/mL (≈ 0.151 µM) in the experiment on Streptococcus pneumoniae [4]; 8 µg/mL (≈ 9.64 µM) against Streptococcus pneumoniae [5]; 8 µg/mL (≈ 9.64 µM) against Haemophilus influenzae [6]. Further, in the experiment with Haemophilus influenzae [7], the MIC worked out at 4 µg/mL (≈ 4.82 µM).

For `CC[C@H]1OC(=O)[C@H](C)[C@@H](O[C@H]2C[C@@](C)(OC)[C@@H](O)[C@H](C)O2)[C@H](C)[C@@H](O[C@@H]2O[C@H](C)C[C@H](N(C)C)[C@H]2O)[C@](C)(OC)C[C@@H](C)C(=O)[C@H](C)[C@@H](O)[C@]1(C)O` [CLARITHROMYCIN], the MIC is 0.25 µg/mL (≈ 0.334 µM) against Staphylococcus aureus [1]; 4 µg/mL (≈ 5.35 µM) against Staphylococcus aureus [2]; > 64 µg/mL against Staphylococcus aureus [3]; 0.25 µg/mL (≈ 0.334 µM) against Streptococcus pneumoniae [4]; 2 µg/mL (≈ 2.67 µM) in the experiment on Streptococcus pneumoniae [5]; 8 µg/mL (≈ 10.7 µM) against Haemophilus influenzae [6]. In the experiment on Haemophilus influenzae [7], this compound showed an MIC of 8 µg/mL (≈ 10.7 µM).

On to `CC[C@H]1OC(=O)[C@H](C)[C@@H](OC(=O)NCc2ccccc2)[C@H](C)[C@@H](O[C@@H]2O[C@H](C)C[C@H](N(C)C)[C@H]2O)[C@](C)(OC)C[C@@H](C)C(=O)[C@@H](C)[C@@H](OC)[C@]1(C)O`, for which the MIC against Staphylococcus aureus [1] is 2 µg/mL (≈ 2.71 µM); in the experiment on Staphylococcus aureus [2], 0.125 µg/mL (≈ 0.17 µM); against Staphylococcus aureus [3], > 64 µg/mL; in the experiment with Streptococcus pneumoniae [4], 0.125 µg/mL (≈ 0.17 µM); against Streptococcus pneumoniae [5], 0.125 µg/mL (≈ 0.17 µM); against Haemophilus influenzae [6], 8 µg/mL (≈ 10.9 µM). In the experiment on Haemophilus influenzae [7], the MIC was 4 µg/mL (≈ 5.43 µM).

Consider `CC[C@H]1OC(=O)[C@H](C)[C@@H](OC(=O)NCCCOC(C)C)[C@H](C)[C@@H](O[C@@H]2O[C@H](C)C[C@H](N(C)C)[C@H]2O)[C@](C)(OC)C[C@@H](C)C(=O)[C@@H](C)[C@@H](OC)[C@]1(C)O`, for which the MIC was 4 µg/mL (≈ 5.35 µM) in the experiment with Staphylococcus aureus [1]; 4 µg/mL (≈ 5.35 µM) in the experiment on Staphylococcus aureus [2]; > 64 µg/mL against Staphylococcus aureus [3]; 0.5 µg/mL (≈ 0.669 µM) in the experiment on Streptococcus pneumoniae [4]; 8 µg/mL (≈ 10.7 µM) against Streptococcus pneumoniae [5]; 16 µg/mL (≈ 21.4 µM) against Haemophilus influenzae [6]. This compound came in with an MIC in the experiment on Haemophilus influenzae [7] of 32 µg/mL (≈ 42.8 µM).

Regarding `CC[C@H]1OC(=O)[C@H](C)[C@@H](O[C@H]2C[C@@](C)(OC)[C@@H](O)[C@H](C)O2)[C@H](C)[C@@H](O[C@@H]2O[C@H](C)C[C@H](N(C)C)[C@H]2O)[C@](C)(O)C[C@@H](C)C(=O)[C@H](C)[C@@H](O)[C@]1(C)O` [ERYTHROMYCIN], the MIC is 0.125 µg/mL (≈ 0.17 µM) with Staphylococcus aureus [1]; 2 µg/mL (≈ 2.73 µM) with Staphylococcus aureus [2]; > 64 µg/mL in the experiment on Staphylococcus aureus [3]; 0.25 µg/mL (≈ 0.341 µM) against Streptococcus pneumoniae [4]; 1 µg/mL (≈ 1.36 µM) in the experiment on Streptococcus pneumoniae [5]; 16 µg/mL (≈ 21.8 µM) with Haemophilus influenzae [6]. This compound also displayed an MIC in the experiment with Haemophilus influenzae [7] of 16 µg/mL (≈ 21.8 µM).

As for `CC[C@H]1OC(=O)[C@H](C)[C@@H](OC(=O)NCc2ccc(C)cc2)[C@H](C)[C@@H](O[C@@H]2O[C@H](C)C[C@H](N(C)C)[C@H]2O)[C@](C)(OC)C[C@@H](C)C(=O)[C@@H](C)[C@@H](OC)[C@]1(C)O`, the MIC against Staphylococcus aureus [1] turned out to be 0.25 µg/mL (≈ 0.333 µM); in the experiment with Staphylococcus aureus [2] it was 0.125 µg/mL (≈ 0.166 µM); with Staphylococcus aureus [3], 64 µg/mL (≈ 85.2 µM); in the experiment on Streptococcus pneumoniae [4] it was 0.125 µg/mL (≈ 0.166 µM); in the experiment on Streptococcus pneumoniae [5], 0.25 µg/mL (≈ 0.333 µM); with Haemophilus influenzae [6], 4 µg/mL (≈ 5.33 µM). This compound registered an MIC against Haemophilus influenzae [7] of 4 µg/mL (≈ 5.33 µM).

Consider `CC[C@H]1OC(=O)[C@H](C)[C@@H](OC(=O)Nc2nccs2)[C@H](C)[C@@H](O[C@@H]2O[C@H](C)C[C@H](N(C)C)[C@H]2O)[C@](C)(OC)C[C@@H](C)C(=O)[C@@H](C)[C@@H](OC)[C@]1(C)O`, for which the MIC against Staphylococcus aureus [1] is 32 µg/mL (≈ 43.8 µM); in the experiment on Staphylococcus aureus [2], 32 µg/mL (≈ 43.8 µM); against Staphylococcus aureus [3], > 64 µg/mL; against Streptococcus pneumoniae [4], 0.125 µg/mL (≈ 0.171 µM); with Streptococcus pneumoniae [5], 8 µg/mL (≈ 11 µM); in the experiment on Haemophilus influenzae [6], 32 µg/mL (≈ 43.8 µM). For the same compound, the MIC against Haemophilus influenzae [7] was 32 µg/mL (≈ 43.8 µM).

Source of the values: ChEMBL document CHEMBL1240419, “Synthesis and antibacterial activity of 3-O-carbamoyl derivatives of 6,11-di-O-methylerythromycin A: a novel class of acylides” (2010).
